Blank lines part the entries; values can stand above or below the molecule they belong to.
How the values were obtained:
[1] = test system: DNA duplex 5′-CCC GGG TTT CCC-3′ / 3′-GGG CCC AAT GGG-5′ containing a T-T pair; assay: FIRMS binding force of the T-Hg-T system (DNA duplex with T-T pair)
Experimental: (§1) Some embodiments of the method of using a differential binding force to quantify the efficiency of a drug molecule to a receptor comprises a process wherein one strand of the DNA duplex is immobilized on a surface, while the other is labeled with a magnetic particle. The binding forces of the DNA duplex are measured in the absence and presence of the drug molecule, denoted as F1 and F2, respectively. The differential binding force, F2-F1, characterizes the influence of the drug-DNA binding on the stability of the DNA. The binding forces are obtained using the FIRMS technique, depicted in FIG. 1.
(§2) Magnetic particles M280 were used to label one strand of the DNA duplexes as previously characterized.^16] After initial magnetization by a permanent magnet, the magnetic signal of the particles were detected by an atomic magnetometer, with a sensitivity of 200 fT/(Hz)^1/2. Sample wells (4×2×1 mm^3) with a biotin-coated bottom surface were used to immobilize the other strand of the DNA duplexes. Mechanical forces were applied using a centrifuge (Eppendorf 5417R).
The sample well, with dimensions of 4×2×1 mm^3 (L×W×D), was coated with biotin on the bottom surface. An aqueous solution of 0.625 mg/mL streptavidin was loaded into the sample well and incubated for 1 hr. Then the sample well was rinsed three times with a buffer solution as described below. […]

[2] = test system: DNA duplex 5′-CGCGAAAAACGCG-3′; assay: FIRMS binding force of groove-binding drugs with DNA; details: for binding force of DNA with drug: DNA alone 59 pN
Experimental: as §1
The method of differential binding force can also be used to quantify a different binding mode of DNA-drug interactions. We chose two groove-binding drugs, netropsin and berenil. The groove-binding interaction is different from the intercalation interaction of daunomycin and THP. Shown in FIG. 6 are the binding forces of DNA alone, DNA with netropsin, and DNA with berenil, with values of 59, 63, and 73 pN, respectively. The DNA sequence was 5′-CGCGAAAAACGCG-3′ (SEQ. 5). The binding forces yield differential binding force of 4 pN for netropsin and 14 pN for berenil.

[3] = test system: DNA2 (5′-CCC GGG TTT CCC-3′ and its complementary strand); assay: FIRMS binding force of drug with DNA2
Experimental: as §1
as §2, with “Mechanical forces were applied using a centrifuge (Eppendorf 5417R).” left out
(§3) DNA Intercalation is widely considered as its binding mode, although minor groove binding has also been discussed,^[24] however, the specificity has previously not been quantified by binding strength. […] As a control experiment the differential binding force of daunomycin with a different DNA duplex, DNA2, with sequence 5′-CCC GGG TTT CCC-3′ and its complementary strand was measured.

[4] = test system: DNA1 (5′-CCC AAT CGA CCC-3′ with complementary strand 5′-GGG TCG ATT GGG-3′); assay: FIRMS binding force of drug with DNA1
Experimental: as §1
as §2, with “Mechanical forces were applied using a centrifuge (Eppendorf 5417R).” left out
as §3

SMILES: [Hg+2] [Hg]
binding force of the DNA duplex upon binding ([1]; DNA alone 40 pN, HEPES buffer pH 7.6): 54 pN
differential binding force (F2-F1) ([1]; increase over DNA alone): 14 pN

differential binding force (F2-F1) [2]: 14 pN
binding force of DNA with drug [2]: 73 pN
SMILES: CC(=O)NCC(=O)O.CC(=O)NCC(=O)O.N=C(N)c1ccc(N=NNc2ccc(C(=N)N)cc2)cc1 [berenil]

SMILES: COc1cccc2c1C(=O)c1c(O)c3c(c(O)c1C2=O)C[C@@](O)(C(C)=O)C[C@@H]3O[C@H]1C[C@H](N)[C@H](O)[C@H](C)O1 [daunomycin]
differential binding force (F2-F1) [3]: no significant force difference
binding force of DNA2 with drug ([3]; DNA alone 51 pN): 52 pN
differential binding force (F2-F1) [4]: 12 pN
binding force of DNA1 with drug ([4]; DNA alone 45 pN (daunomycin, TE buffer) or 44 pN (THP, BPES buffer)): 57 pN

SMILES: Cn1cc(NC(=O)c2cc(NC(=O)CN=C(N)N)cn2C)cc1C(=O)NCCC(=N)N [netropsin]
differential binding force (F2-F1) [2]: 4 pN
binding force of DNA with drug [2]: 63 pN
